Experimental data taken from article PMC8787815 (2022).

System: 6xHis mCherry F30-2xdBroccoli mRNA transcript (RNA, aptamer) GGGAGACCACAACGGUUUCCCUCUAGAAAUAAUUUUGUUUAACUUUAAGAAGGAGAUAUACCAUGUCUGGUUCUCAUCAUCAUCAUCAUCAUGGUAGCAGCGGCGAAAACCUGUAUUUUCAGUCCAUGGUGAGCAAGGGCGAGGAGGAUAACAUGGCCAUCAUCAAGGAGUUCAUGCGCUUCAAGGUGCACAUGGAGGGCUCCGUGAACGGCCACGAGUUCGAGAUCGAGGGCGAGGGCGAGGGCCGCCCCUACGAGGGCACCCAGACCGCCAAGCUGAAGGUGACCAAGGGUGGCCCCCUGCCCUUCGCCUGGGACAUCCUGUCCCCUCAGUUCAUGUACGGCUCCAAGGCCUACGUGAAGCACCCCGCCGACAUCCCCGACUACUUGAAGCUGUCCUUCCCCGAGGGCUUCAAGUGGGAGCGCGUGAUGAACUUCGAGGACGGCGGCGUGGUGACCGUGACCCAGGACUCCUCCCUGCAGGACGGCGAGUUCAUCUACAAGGUGAAGCUGCGCGGCACCAACUUCCCCUCCGACGGCCCCGUAAUGCAGAAGAAGACCAUGGGCUGGGAGGCCUCCUCCGAGCGGAUGUACCCCGAGGACGGCGCCCUGAAGGGCGAGAUCAAGCAGAGGCUGAAGCUGAAGGACGGCGGCCACUACGACGCUGAGGUCAAGACCACCUACAAGGCCAAGAAGCCCGUGCAGCUGCCCGGCGCCUACAACGUCAACAUCAAGUUGGACAUCACCUCCCACAACGAGGACUACACCAUCGUGGAACAGUACGAACGCGCCGAGGGCCGCCACUCCACCGGCGGCAUGGACGAGCUGUACAAGGGCAGCUAAAGGGUGAUCUUGCCAUGUGUAUGUGGGAGACGGUCGGGUCCAUCUGAGACGGUCGGGUCCAGAUAUUCGUAUCUGUCGAGUAGAGUGUGGGCUCAGAUGUCGAGUAGAGUGUGGGCUCCCACAUACUCUGAUGAUCCAGACGGUCGGGUCCAUCUGAGACGGUCGGGUCCAGAUAUUCGUAUCUGUCGAGUAGAGUGUGGGCUCAGAUGUCGAGUAGAGUGUGGGCUGGAUCAUUCAUGGCAACGGCUGCUAACAAAGCCCGAAAGGAAGCUGAGUUGGCUGCUGCCACCGCUGAGCAAUAACUAGCAUAACCCCUUGGGGCCUCUAAACGGGUCUUGAGGGGUUUUUUGCUGAAAGGAGGAACU
Test: fluorescence activation (in-gel staining; plate reader)
Conditions: PURExpress reaction with 10 μM DFHBI, 80.4 mM sucrose, 30 °C; also in-gel DFHBI staining; qualitative

binding: yes
Structure (SMILES): CC1=N/C(=C\c2cc(F)c(O)c(F)c2)C(=O)N1C
